Literature values, collected in US10689308B2, “Solvent for thiophosphoric triamide or dicyandiamide solutions, and related methods” (RHODIA OPERATIONS, priority 2014, dated 2020).

Details: dicyandiamide in a solid form; background statement

- solubility in water: about 41 grams per liter
SMILES: N#CNC(=N)N [Dicyandiamide]
